Assays:
human TRPV1 = molecular target: T1, human TRPV1 (Homo sapiens, UniProt Q8NER1); experiment: Functional assay: block of capsaicin-induced Ca2+ influx, human assay (hTRPV1/HEK293, FLIPR); format: cell-based; settings: hTRPV1/HEK293 cells, 150 nM capsaicin challenge, Fluo-3 fluorescence; mean; > value = solubility limit in assay medium
T1 construct: expressed in transfected cells; host or cells: HEK293 (hTRPV1/HEK293), zeocin selection
How it was run: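 HEK293 cells stably expressing human TRPV1, fluo3-loaded, preincubated 30 min with compound (serial 3-fold dilutions from 10 μM, duplicate) in 20 μM Ca2+ buffer. Capsaicin response taken as fluo3 fluorescence change before vs 100 s after agonist; IC50 by non-linear regression, mean values; free base or TFA salt.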

rat TRPV1 = molecular target: T2, rat TRPV1 (Rattus norvegicus, UniProt O35433); experiment: Functional assay: block of capsaicin-induced Ca2+ influx, rat assay (rTRPV1/HEK293, FLIPR); format: cell-based; settings: rTRPV1/HEK293 cells, capsaicin challenge, Fluo-3 fluorescence; mean; > value = solubility limit in assay medium
T2 construct: expressed in transfected cells; host or cells: HEK293 (rTRPV1/HEK293), geneticin selection
How it was run: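 Compounds, as free base or TFA salt, tested from 10 μM in three-fold steps on rTRPV1-transfected HEK293 cells, with 30 min preincubation in low-calcium (20 μM) buffer. Capsaicin-evoked Ca2+ influx measured by FLIPR fluo3 signal before and 100 s after addition. Averaged IC50 from non-linear fits.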

T2 sequence (O35433 whole entry): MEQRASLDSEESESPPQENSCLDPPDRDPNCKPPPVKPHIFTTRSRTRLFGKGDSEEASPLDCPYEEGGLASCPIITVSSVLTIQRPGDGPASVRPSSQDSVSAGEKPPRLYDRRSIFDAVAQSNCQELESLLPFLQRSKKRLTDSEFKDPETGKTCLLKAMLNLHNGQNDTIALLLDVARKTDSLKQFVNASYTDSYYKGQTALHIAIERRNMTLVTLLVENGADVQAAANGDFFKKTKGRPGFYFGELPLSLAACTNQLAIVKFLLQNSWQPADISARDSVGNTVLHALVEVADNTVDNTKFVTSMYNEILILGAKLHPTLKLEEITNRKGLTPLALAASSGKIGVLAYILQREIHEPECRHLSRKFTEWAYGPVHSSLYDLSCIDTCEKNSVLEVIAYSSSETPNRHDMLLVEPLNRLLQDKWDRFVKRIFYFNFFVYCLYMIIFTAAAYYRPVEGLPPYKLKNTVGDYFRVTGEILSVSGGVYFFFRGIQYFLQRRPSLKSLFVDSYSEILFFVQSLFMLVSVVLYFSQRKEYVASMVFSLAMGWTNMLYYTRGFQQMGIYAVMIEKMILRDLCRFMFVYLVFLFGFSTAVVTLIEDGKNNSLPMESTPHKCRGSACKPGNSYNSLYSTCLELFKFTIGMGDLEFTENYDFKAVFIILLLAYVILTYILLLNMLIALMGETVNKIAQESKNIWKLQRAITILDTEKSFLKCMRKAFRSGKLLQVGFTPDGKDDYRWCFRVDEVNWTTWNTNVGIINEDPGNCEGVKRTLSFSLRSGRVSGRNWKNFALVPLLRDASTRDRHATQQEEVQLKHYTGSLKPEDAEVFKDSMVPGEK
T1 sequence (Q8NER1 whole entry): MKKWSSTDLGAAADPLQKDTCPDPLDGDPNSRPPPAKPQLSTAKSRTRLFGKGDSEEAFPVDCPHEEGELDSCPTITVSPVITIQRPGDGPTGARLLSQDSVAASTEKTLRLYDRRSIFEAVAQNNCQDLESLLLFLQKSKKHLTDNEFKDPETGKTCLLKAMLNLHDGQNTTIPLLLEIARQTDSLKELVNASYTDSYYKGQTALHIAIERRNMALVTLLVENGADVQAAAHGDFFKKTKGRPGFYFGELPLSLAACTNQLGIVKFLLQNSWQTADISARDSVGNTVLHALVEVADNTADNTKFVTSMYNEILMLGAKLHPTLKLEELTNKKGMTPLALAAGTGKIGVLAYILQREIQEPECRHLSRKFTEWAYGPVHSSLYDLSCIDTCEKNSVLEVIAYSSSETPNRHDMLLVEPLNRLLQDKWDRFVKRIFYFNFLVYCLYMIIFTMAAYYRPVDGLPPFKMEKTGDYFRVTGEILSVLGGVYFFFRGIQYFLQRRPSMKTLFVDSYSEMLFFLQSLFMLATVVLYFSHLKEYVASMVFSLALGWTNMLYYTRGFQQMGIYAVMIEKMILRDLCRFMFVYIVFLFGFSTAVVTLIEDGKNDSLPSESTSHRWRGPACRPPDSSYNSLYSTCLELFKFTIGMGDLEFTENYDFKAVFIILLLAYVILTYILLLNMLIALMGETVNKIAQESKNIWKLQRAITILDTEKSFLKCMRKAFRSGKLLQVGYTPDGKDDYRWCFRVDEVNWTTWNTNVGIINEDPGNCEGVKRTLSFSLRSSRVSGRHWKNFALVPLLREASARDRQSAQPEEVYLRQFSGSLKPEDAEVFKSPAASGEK

Row | Structure (SMILES) | IC50 (human TRPV1) | IC50 (rat TRPV1)
1 | Cc1cccc(C)c1Nc1nc2c(Nc3ccc(S(=O)(=O)N4CCCC4)cc3)ncnc2s1 [Example 104, N^2-(2,6-Dimethyl-phenyl)-N^7-[4-(pyrrolidine-1-sulfonyl)-phenyl]-thiazolo[5,4-d]pyrimidine-2,7-diamine] | 22 nM | 7 nM
2 | Cc1nc(Nc2ccc(SC(C)C)cc2)c2nc(Nc3c(C)cccc3C)sc2n1 [Example 106, N^2-(2,6-Dimethyl-phenyl)-N^7-(4-isopropylsulfanyl-phenyl)-5-methyl-thiazolo[5,4-d]pyrimidine-2,7-diamine] | 25 nM | 26 nM
3 | Cc1nc(Nc2ccc3c(c2)N(C)CCC3(C)C)c2nc(Nc3c(Cl)cccc3Cl)sc2n1 [Example 107, N^2-(2,6-Dichloro-phenyl)-5-methyl-N^7-(1,4,4-trimethyl-1,2,3,4-tetrahydro-quinolin-7-yl)-thiazolo[5,4-d]pyrimidine-2,7-diamine] | 25 nM | 2 nM
4 | Cc1cccc(C)c1Nc1nc2c(Nc3ccc(C(F)(F)F)c(F)c3)ncnc2s1 [Example 108, N^2-(2,6-Dimethyl-phenyl)-N^7-(3-fluoro-4-trifluoromethyl-phenyl)-thiazolo[5,4-d]pyrimidine-2,7-diamine] | 26 nM | 14 nM
5 | O=S(=O)(c1ccc(Nc2ncnc3sc(Nc4ccccc4Cl)nc23)cc1)N1CCCC1 [Example 109, N^2-(2-Chloro-phenyl)-N^7-[4-(pyrrolidine-1-sulfonyl)-phenyl]-thiazolo[5,4-d]pyrimidine-2,7-diamine] | 28 nM | 18 nM
6 | Cc1cccc(C)c1Nc1nc2c(Nc3ccc(S(=O)(=O)N4CCN(C)CC4)cc3)ncnc2s1 [Example 110, N^2-(2,6-Dimethyl-phenyl)-N^7-[4-(4-methyl-piperazine-1-sulfonyl)-phenyl]-thiazolo[5,4-d]pyrimidine-2,7-diamine] | 26 nM | 20 nM
7 | Cc1nc(Nc2ccc(OC(F)(F)F)cc2)c2nc(Nc3c(Cl)cccc3Cl)sc2n1 [Example 111, N^2-(2,6-Dichloro-phenyl)-5-methyl-N^7-(4-trifluoromethoxy-phenyl)-thiazolo[5,4-d]pyrimidine-2,7-diamine] | 36 nM | 16 nM
8 | Cc1cccc(C)c1Nc1nc2c(Nc3ccc(SC(C)C)cc3)ncnc2s1 [Example 112, N^2-(2,6-Dimethyl-phenyl)-NT-(4-isopropylsulfanyl-phenyl)-thiazolo[5,4-d]pyrimidine-2,7-diamine] | 36 nM | 56 nM
9 | CN(C)S(=O)(=O)c1ccc(Nc2ncnc3sc(Nc4ccccc4Cl)nc23)cc1 [Example 113, 4-[2-(2-Chloro-phenylamino)-thiazolo[5,4-d]pyrimidin-7-ylamino]-N,N-dimethyl-benzenesulfonamide] | 38 nM | 17 nM
10 | CSc1ccc(Nc2nc(C)nc3sc(Nc4c(C)cccc4C)nc23)cc1 [Example 114, N^2-(2,6-Dimethyl-phenyl)-5-methyl-N^7-(4-methylsulfanyl-phenyl)-thiazolo[5,4-d]pyrimidine-2,7-diamine] | 39 nM | 13 nM
11 | Cc1cccc(C)c1Nc1nc2c(Nc3ccc(S(C)(=O)=O)cc3)ncnc2s1 [Example 115, N^2-(2,6-Dimethyl-phenyl)-N^7-(4-methanesulfonyl-phenyl)-thiazolo[5,4-d]pyrimidine-2,7-diamine] | 44 nM | 4 nM
12 | Cc1ccccc1Nc1nc2c(Nc3ccc(S(C)(=O)=O)cc3)ncnc2s1 [Example 116, N^7-(4-Methanesulfonyl-phenyl)-N^2-o-tolyl-thiazolo[5,4-d]pyrimidine-2,7-diamine] | 45 nM | 11 nM
13 | Cc1cccc(C)c1Nc1nc2c(Nc3ccc(Cl)nc3)ncnc2s1 [Example 119, N^7-(6-Chloro-pyridin-3-yl)-N^2-(2,6-dimethyl-phenyl)-thiazolo[5,4-d]pyrimidine-2,7-diamine] | 56 nM | 51 nM
14 | CSc1ccc(Nc2ncnc3sc(Nc4c(C)cccc4C)nc23)cc1 [Example 120, N^2-(2,6-Dimethyl-phenyl)-N^7-(4-methylsulfanyl-phenyl)-thiazolo[5,4-d]pyrimidine-2,7-diamine] | 64 nM | 15 nM
15 | Cc1nc(Nc2ccc(C(F)(F)F)c(F)c2)c2nc(Nc3c(C)cccc3C)sc2n1 [Example 121, N^2-(2,6-Dimethyl-phenyl)-N^7-(3-fluoro-4-trifluoromethyl-phenyl)-5-methyl-thiazolo[5,4-d]pyrimidine-2,7-diamine] | 82 nM | 25 nM
16 | Cc1cccc(C)c1Nc1nc2c(Nc3ccc(S(=O)(=O)C(C)C)cc3)ncnc2s1 [Example 122, N^2-(2,6-Dimethyl-phenyl)-N^7-[4-(Propane-2-sulfonyl)-phenyl]-thiazolo[5,4-d]pyrimidine-2,7-diamine] | 87 nM | 129 nM
17 | Cc1cccc(C)c1Nc1nc2c(Nc3ccc(Br)cc3)ncnc2s1 [Example 123, N^7-(4-Bromo-phenyl)-N^2-(2,6-dimethyl-phenyl)-thiazolo[5,4-d]pyrimidine-2,7-diamine] | 97 nM | 59 nM
18 | CSc1ccc(Nc2ncnc3sc(Nc4c(Cl)cccc4Cl)nc23)cc1Cl [Example 124, N^7-(3-Chloro-4-methylsulfanyl-phenyl)-N^2-(2,6-dichloro-phenyl)-thiazolo[5,4-d]pyrimidine-2,7-diamine] | 98 nM | 40 nM
19 | Cc1nc(Nc2ccc(C(C)C)cc2)c2nc(Nc3c(C)cccc3C)sc2n1 [Example 125, N^2-(2,6-Dimethyl-phenyl)-N^7-(4-isopropyl-phenyl)-5-methyl-thiazolo[5,4-d]pyrimidine-2,7-diamine] | 123 nM | 19 nM
20 | CS(=O)(=O)c1ccc(Nc2ncnc3sc(Nc4ccccc4Cl)nc23)cc1 [Example 126, N^2-(2-Chloro-phenyl)-N^7-(4-methanesulfonyl-phenyl)-thiazolo[5,4-d]pyrimidine-2,7-diamine] | 129 nM | 30 nM
21 | CSc1nc(Nc2ccc(S(=O)(=O)N(C)C)cc2)c2nc(Nc3c(Cl)cccc3Cl)sc2n1 [Example 127, 4-[2-(2,6-Dichloro-phenylamino)-5-methylsulfanyl-thiazolo[5,4-d]pyrimidin-7-ylamino]-N,N-dimethyl-benzenesulfonamide] | 138 nM | 59 nM
22 | CC(=O)c1ccc(Nc2ncnc3sc(Nc4c(C)cccc4C)nc23)cc1 [Example 128, 1-{4-[2-(2,6-Dimethyl-phenylamino)-thiazolo[5,4-d]pyrimidin-7-ylamino]-phenyl}-ethanone] | 138 nM | 121 nM
23 | CS(=O)(=O)c1ccc(Nc2nc(N3CCCCC3)nc3sc(Nc4c(Cl)cccc4Cl)nc23)cc1 [Example 129, N^2-(2,6-Dichloro-phenyl)-N^7-(4-methanesulfonyl-phenyl)-5-piperidin-1-yl-thiazolo[5,4-d]pyrimidine-2,7-diamine] | 149 nM | 23 nM
24 | Cc1nc(Nc2ccc(SC(F)(F)F)c(Cl)c2)c2nc(Nc3c(C)cccc3C)sc2n1 [Example 131, N^7-(3-Chloro-4-trifluoromethylsulfanyl-phenyl)-N^2-(2,6-dimethyl-phenyl)-5-methyl-thiazolo[5,4-d]pyrimidine-2,7-diamine] | 171 nM | 140 nM

Reference: patent US20080004253A1, “Thiazolopyrimidine modulators of TRPV1” (priority 2006, published 2008)
